Laboratory results taken from PubChem BioAssay AID1259371 (The Scripps Research Institute Molecular Screening Center, 2018).
The source made the active and inactive calls. No rule for the calls is given here.

These compounds were tested against Microphthalmia-associated transcription factor (Homo sapiens) (UniProt O75030) (assay: compounds blocking human MITF signal – biochemical, AlphaScreen, dose response (AID 1259371)). Conditions: AlphaScreen biochemical MITF assay, signal inhibition.
Sequence of Microphthalmia-associated transcription factor (Homo sapiens) (O75030 whole entry, looked up): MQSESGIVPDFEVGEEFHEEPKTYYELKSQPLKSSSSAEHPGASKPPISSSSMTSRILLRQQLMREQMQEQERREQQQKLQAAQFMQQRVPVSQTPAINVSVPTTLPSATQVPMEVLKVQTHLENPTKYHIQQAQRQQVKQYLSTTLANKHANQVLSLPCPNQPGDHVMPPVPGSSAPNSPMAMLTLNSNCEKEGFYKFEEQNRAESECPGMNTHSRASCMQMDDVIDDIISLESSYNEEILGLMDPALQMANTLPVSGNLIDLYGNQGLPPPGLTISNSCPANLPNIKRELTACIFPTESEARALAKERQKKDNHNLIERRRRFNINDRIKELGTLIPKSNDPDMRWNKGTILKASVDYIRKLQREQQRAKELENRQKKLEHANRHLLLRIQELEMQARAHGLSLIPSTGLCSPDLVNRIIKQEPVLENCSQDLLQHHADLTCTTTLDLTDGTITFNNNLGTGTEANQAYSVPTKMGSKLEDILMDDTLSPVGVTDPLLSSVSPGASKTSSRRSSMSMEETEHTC
`C[C@H]1C(=O)N2CCN(C(=O)NC3CCCCC3)C[C@@H]2C(=O)N1C` was tested, and the IC50 was “inactive”.
With `O=C(COC(=O)/C=C/c1ccco1)COC(=O)/C=C/c1ccco1` the IC50 was 0.122 µM.
`O=C(O)c1cc(S(=O)(=O)Nc2ccncc2)ccc1O` was tested, and the IC50 was “inactive”.
With `O=C(Nc1ccc(-c2ccncc2)c(C(F)(F)F)c1)C1COc2ccccc2O1` (stereo unspecified) the IC50 was “inactive”.
With `COc1cc(/C=N/N=C2\NC(=O)C(CC(=O)O)S2)ccc1OCc1ccc(C)cc1` (stereo unspecified) the IC50 was “inactive”.
With `Cc1ncn(-c2ccc(N(C)c3ncc4cccc(-c5ccn[nH]5)c4n3)cc2)n1` the IC50 was > 6.48 µM (inactive).
In the case of `Cc1cccc(N2CCN(C(=O)/C=C\C(=O)O)CC2)c1C`, the IC50 is reported as “inactive”.
With `O=C(CN1C(=O)NC2(CCCCCC2)C1=O)NC(=O)NCc1ccco1` the IC50 was “inactive”.
`C[C@@H](OCc1ccccc1)[C@@H]1NC(=O)[C@H]2CN(C(=O)Nc3cccc(F)c3)CCN2C1=O` was tested, and the IC50 was “inactive”.
For `CC(C)C[C@@H]1NC(=O)[C@H]2CN(C(=O)NC3CCCCC3)CCN2C1=O`, the IC50 was 0.985 µM.
`N#C/C(=C\c1nn(-c2ccccc2)c(N)c1C#N)c1ccco1` gave an IC50 of 0.386 µM.
In the case of `O=C(/C=C/c1ccco1)NCCCCCCNC(=O)/C=C/c1ccco1`, the IC50 is reported as “inactive”.
`COc1ccc(OC)c(NC(=O)c2cc3ccc(O)cc3oc2=Nc2ccc(C(=O)O)cc2)c1` gave an IC50 of 0.981 µM.
`COc1cc(C)c2c(c1C=O)Oc1c(c(C)c(O)c3c1C(O)OC3=O)OC2=O` (stereo unspecified) gave an IC50 of 0.468 µM.
`CC[C@H](C)[C@@H]1NC(=O)[C@H]2CN(C(=O)NCc3ccccc3)CCN2C1=O` was tested, and the IC50 was “inactive”.
For `COc1ccc(C)cc1NC(=O)C(NCC(O)c1ccccc1)c1ccccc1` (stereo unspecified), the IC50 was “inactive”.
For `O=C(O)c1cc(S(=O)(=O)Nc2ccc3cn[nH]c3c2)ccc1O`, the IC50 was “inactive”.
For `CC(=O)NC1=NC(=O)/C(=C\c2ccc(Br)o2)S1`, the IC50 was 0.153 µM.
With `Cc1ccc(C(=O)Nc2ccc([N+](=O)[O-])cn2)o1` the IC50 was > 6.48 µM (inactive).
In the case of `O=C1N[C@H](Cc2ccccc2)C(=O)N2CCN(C(=O)NCc3ccccc3)C[C@H]12`, the IC50 is reported as “inactive”.
`O=C(O)c1cc(NN=C2CCCC2)ccc1Cl` showed an IC50 of 0.408 µM.
With `O=C(O)c1ccc(O)c(C=Nc2ccc(N=Cc3cc(C(=O)O)ccc3O)cc2)c1` the IC50 was “inactive”.
In the case of `O=C(NCCO)c1cccc(-c2cccs2)c1`, the IC50 is reported as “inactive”.
In the case of `COc1cccc(CN2CCN(C(=O)c3ccc(F)cc3)CC2)c1`, the IC50 is reported as “inactive”.
With `CN1C(=O)[C@H]2CN(C(=O)NCc3ccccc3)CCN2C(=O)[C@@H]1Cc1ccccc1` the IC50 was “inactive”.
In the case of `O=c1c(O)c(-c2ccc(O)cc2O)oc2cc(O)cc(O)c12`, the IC50 is reported as “inactive”.
For `CCN(CCN(C)C)Cc1ccc(F)cc1`, the IC50 was > 6.48 µM (inactive).
In the case of `O=C1O[C@H](C(O)CO)C(O)=C1O` (stereo partly specified), the IC50 is reported as “inactive”.
With `CC(C)N(C(=O)COC(=O)c1cc(-c2ccco2)nc2ccccc12)C(C)C` the IC50 was “inactive”.
With `O=c1[nH]cnc2nc(-c3ccco3)c(-c3ccco3)nc12` the IC50 was 0.0797 µM.
`CC(C)[C@H]1NC(=O)[C@H]2CN(C(=O)NCc3ccccc3)CCN2C1=O` was tested, and the IC50 was “inactive”.
For `CCN1CCN(CCOCCOc2ccc(F)cc2)CC1`, the IC50 was > 6.48 µM (inactive).
`CN1CC[C@H](Oc2cc(-c3cn[nH]c3)ccc2NC(=O)OCc2ccccc2)C1` was tested, and the IC50 was “inactive”.
`CN(C)CCCNC(=O)c1cccc(CN(C(=O)c2nc3ccc(-c4cn[nH]c4)cc3s2)C2CC2)c1` was tested, and the IC50 was “inactive”.
In the case of `CN(Cc1ccco1)S(=O)(=O)c1ccc2[nH]cc(C(=O)O)c(=O)c2c1`, the IC50 is reported as “inactive”.
For `N[C@@H](C(=O)N[C@@H]1C(=O)N2C(C(=O)O)=C(CSC3CNNN3)CS[C@H]12)c1ccc(O)cc1` (stereo partly specified) (tested in a mixture with another compound), the IC50 was 0.324 µM.
For `CC(=O)Oc1ccccc1N1C(=O)c2ccc(Oc3cccc(N)c3)cc2C1=O`, the IC50 was 0.479 µM.
`N#CC(C#N)=Cc1cccn1-c1ccc(C(=O)O)cc1` was tested, and the IC50 was “inactive”.
With `S=c1[nH]nc(-c2ccncc2)n1/N=C/C=C/c1ccco1` the IC50 was 0.207 µM.
`Cc1cncc2c(S(=O)(=O)N3CC[C@@H](NC(=O)C(O)c4ccc(F)cc4F)C3)cccc12` (stereo partly specified) was tested, and the IC50 was “inactive”.
With `COc1cccc(CN2CCC(CNc3ccc(-c4ccncc4)cc3)C2)c1` (stereo unspecified) the IC50 was 0.285 µM.
Work on `NC(=O)n1c(CCC(=O)O)nc2sc3c(c2c1=O)CCC3` yielded an IC50 of 0.211 µM.
With `O=C(CCc1ccco1)Nc1ccc(-c2cn3c4c(nnc3n2)CCCC4)cc1` the IC50 was 0.032 µM.
In the case of `C/C(=N\NC(=O)CC1=NNC(=O)C1)c1ccco1`, the IC50 is reported as “inactive”.
In the case of `CSc1ccc(C(=O)O)s1`, the IC50 is reported as “inactive”.
With `COc1ccccc1C1(NC(=O)CCCCC2SCC3NC(=O)NC32)CCCC1` (stereo unspecified) the IC50 was “inactive”.
With `O=C1OC(c2ccc(Cl)cc2Cl)=N/C1=C\c1ccc([N+](=O)[O-])o1` the IC50 was “inactive”.
Work on `CN(C)[C@@H]1C(=O)C(C(=O)NCN2CCCC2)=C(O)[C@@]2(O)C(=O)C3=C(O)c4c(O)cccc4[C@@](C)(O)[C@H]3C[C@@H]12` yielded an IC50 of 0.425 µM.
With `O=C(CCCCC1SCC2NC(=O)NC21)NC1(c2ccc3c(c2)OCO3)CCCC1` (stereo unspecified) the IC50 was “inactive”.
For `CCC12c3ccccc3C(c3ccccc31)C1C(=O)NC(=O)C12` (stereo unspecified), the IC50 was > 2.16 µM (inactive).
In the case of `O=C(NCc1cccnc1)c1cccc(-c2cccs2)c1`, the IC50 is reported as > 6.64 µM (inactive).
With `Cc1ccc(S(=O)(=O)C(CNC(=O)c2ccco2)c2cccs2)cc1` (stereo unspecified) the IC50 was “inactive”.
In the case of `O=C1CCCC2=C1C(c1ccc([N+](=O)[O-])o1)C1=C(CCCC1=O)O2`, the IC50 is reported as “inactive”.
For `c1cncc(CNc2nc(Nc3ccc(N4CCOCC4)cc3)c3ncn(C4CCCCC4)c3n2)c1`, the IC50 was > 4.84 µM (inactive).
For `NC(=O)c1cccc(-c2cccs2)c1`, the IC50 was “inactive”.
In the case of `COCCCNC(=O)/C(C#N)=C/c1ccc(OCC(=O)O)c(OC)c1`, the IC50 is reported as “inactive”.
In the case of `CCOC(=O)C1C2NC(=S)N(CC)C1(C)Oc1ccc(Br)cc12` (stereo unspecified), the IC50 is reported as > 6.31 µM (inactive).
`O=S(=O)(c1ccccc1C(F)(F)F)N1CCC(c2nc3ccccc3[nH]2)CC1` showed an IC50 of 0.47 µM.
For `Cc1ccccc1/C=C1\N=C(c2cc(C3=N/C(=C/c4ccccc4C)C(=O)O3)cc(C3=N/C(=C/c4ccccc4C)C(=O)O3)c2)OC1=O`, the IC50 was “inactive”.
In the case of `O=C(O)c1cc(C(=O)O)cc(-c2ccc(/C=N\n3cnnc3)o2)c1`, the IC50 is reported as “inactive”.
For `C[C@H]1NC(=O)[C@H]2CN(C(=O)NCc3ccccc3)CCN2C1=O`, the IC50 was “inactive”.
In the case of `CCCCn1c(=O)[nH]c(=O)c2c1nc(-c1ccc([N+](=O)[O-])o1)n2C`, the IC50 is reported as 0.0666 µM.
In the case of `Cc1cc(/C=C2/C=CC(=O)O2)oc1C`, the IC50 is reported as 0.651 µM.
`CCOC(=O)C1CCCN(Cc2cccc(Br)c2)C1` (stereo unspecified) was tested, and the IC50 was > 6.48 µM (inactive).
With `CC1=C(C#N)C(c2cc3c(cc2[N+](=O)[O-])OCO3)C2=C(CCCC2=O)N1` (stereo unspecified) the IC50 was “inactive”.
With `C[C@H]1C(=O)N2CCN(C(=O)NCc3ccccc3)C[C@@H]2C(=O)N1C` the IC50 was “inactive”.
For `O=C(O)/C=C/c1ccc([N+](=O)[O-])o1`, the IC50 was “inactive”.
For `COc1cccc(COC(=O)Nc2ccc(-c3cn[nH]c3)cc2N(C)CCN(C)C)c1`, the IC50 was “inactive”.
With `CCN(CC)c1ncnc2c1ncn2[C@@H]1O[C@H](COP(=O)(O)OP(=O)(O)C(Br)(Br)P(=O)(O)O)C(O)[C@@H]1O` (stereo partly specified) the IC50 was 0.175 µM.
With `COc1cccc(CC(=O)Nc2nnc(-c3ccco3)c(-c3ccco3)n2)c1` the IC50 was 0.113 µM.
For `C[C@H](O)[C@H]1NC(=O)[C@H]2CN(C(=O)NCc3ccccc3)CCN2C1=O`, the IC50 was “inactive”.
Compound `Cc1cc(C)n(C(=O)/C=C/c2ccco2)n1` has an IC50 of 0.817 µM.
Work on `O=C(O)CCC(NCc1ccco1)C(=O)O` (stereo unspecified) yielded an IC50 of 0.806 µM.
In the case of `O=C(O)c1ccc(CNC(=O)c2cocc2C(=O)O)o1`, the IC50 is reported as > 7.32 µM (inactive).
For `O=C1N[C@@H](Cc2ccc(O)cc2)C(=O)N2CCN(C(=O)NC3CCCCC3)C[C@H]12`, the IC50 was > 2.16 µM (inactive).
In the case of `N#Cc1c(-c2ccc3c(c2)OCO3)nc(N2CCCCC2)[nH]c1=O`, the IC50 is reported as “inactive”.
For `CN(CCOC(=O)/C=C/c1ccco1)Cc1ccccc1`, the IC50 was 0.0483 µM.
For `Cc1nc(C)n(-c2ccc(Nc3cc(-n4cc(N(c5cccnc5)c5cccnc5)cn4)ccn3)cc2)n1`, the IC50 was 0.864 µM.
With `C[C@@H](O)[C@@H]1NC(=O)[C@H]2CN(C(=O)NC3CCCCC3)CCN2C1=O` the IC50 was “inactive”.
For `COc1ccc2c(c1)CC(C(=O)Nc1ccc(-c3cn[nH]c3)cc1OCc1ccccc1)CO2` (stereo unspecified), the IC50 was “inactive”.
With `O=C(c1ccc2c(c1)C(=O)N(Cc1cccnc1)C2=O)c1ccc2c(c1)C(=O)N(Cc1cccnc1)C2=O` the IC50 was “inactive”.
With `O=C(/C=C/c1ccco1)NCC(=O)N/N=C/c1ccc(C(=O)O)cc1` the IC50 was “inactive”.
In the case of `Cc1cc(OCCOCCN2CCNCC2)ccc1Cl`, the IC50 is reported as > 6.48 µM (inactive).
`COC(=O)CN1C(=O)S/C(=C/c2ccc([N+](=O)[O-])o2)C1=O` was tested, and the IC50 was “inactive”.
In the case of `CCOC(=O)c1cc(N2C(=O)C3C4C=CC(C4)C3C2=O)ccc1Cl` (stereo unspecified), the IC50 is reported as “inactive”.
`N/C(=N\[N+](=O)[O-])N/N=C\c1ccc(-c2ccc(O)c(C(=O)O)c2)o1` was tested, and the IC50 was 0.129 µM.
With `O=C(NCCc1ccc(O)cc1)c1ccnc(-c2cccs2)c1` the IC50 was “inactive”.
`CC1=C/C(=N\N=C2\NC(=O)C(CC(=O)Nc3ccc(C(=O)O)cc3)S2)CC(C)(C)C1` (stereo unspecified) gave an IC50 of 0.334 µM.
`CN(C)CCN(C(=O)OCc1ccccc1)c1cc(-c2cn[nH]c2)ccc1NC(=O)OCc1ccccc1` was tested, and the IC50 was “inactive”.
In the case of `CCOC(=O)N1CCN(C(=S)Nc2ccc(OCC)cc2)CC1`, the IC50 is reported as “inactive”.
In the case of `O=C(NC1CCCCC1)N1CCN2C(=O)[C@H]3CCCN3C(=O)[C@H]2C1`, the IC50 is reported as 0.467 µM.
With `O=C(OC1CCCC1=O)c1ccc(Cl)c(S(=O)(=O)N2CCOCC2)c1` (stereo unspecified) the IC50 was “inactive”.
For `Cc1ccc(-c2ncn(-c3ccc(Nc4cc(-n5cnc(Nc6ccccc6)n5)c(F)cn4)cc3)n2)cn1`, the IC50 was “inactive”.
`CCc1ccc(CN2CCN(C(C)C)CC2)cc1` was tested, and the IC50 was > 6.89 µM (inactive).
`CN(N=O)c1cc(O)ccc1O` was tested, and the IC50 was 0.0987 µM.
Work on `O=[N+]([O-])c1cc(C=Nc2ccc(N3CCOCC3)cc2)c(O)c([N+](=O)[O-])c1` yielded an IC50 of 0.753 µM.
With `NC(=O)c1cc(NC(=O)COC(=O)COc2cccc(C(F)(F)F)c2)cc(C(N)=O)c1` the IC50 was “inactive”.
In the case of `Cn1nnc(-c2ccc(Nc3nccc(-c4ccc5nc(C6CC6)[nH]c(=O)c5c4)n3)cc2)n1`, the IC50 is reported as “inactive”.
In the case of `CCc1ccc(CN2CCN(Cc3cc(OC)c(O)c(OC)c3)CC2)cc1`, the IC50 is reported as > 5.79 µM (inactive).
For `Nc1ccc(NCCO)c(N)c1`, the IC50 was “inactive”.
Compound `N#C/C(=C\c1ccc(-c2ccccc2C(=O)O)o1)C(=O)NCc1ccco1` has an IC50 of 0.326 µM.
